For 28 compounds, IC50 and Ki results are on record in ChEMBL document CHEMBL1909046, “DrugMatrix in vitro pharmacology data”.

Experiment [1] has as its target Sigma non-opioid intracellular receptor 1 (Homo sapiens, UniProt Q99720). Put plainly: DRUGMATRIX: Sigma1 radioligand binding (ligand: [3H] Haloperidol). Format: cell membranes, Jurkat, Membrane. Conditions: Not Active = under 50% inhibition at 10 µM; for IC50: jurkat; for pIC50: read-out: IC50; for pKi: read-out: Ki.
The target of another experiment is Melanocortin receptor 4 (Homo sapiens, UniProt P32245). The format is cell membranes, Membrane. Conditions: hek293. Note: in other assays of this panel Not Active means under 50% inhibition at 10 µM.
Experiment [2] has as its target Aldo-keto reductase family 1 member B1 (Rattus norvegicus, UniProt P07943). Kind of experiment: biochemical. Format: tissue-based, Lens of camera-type eye.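 Note: inhibition of aldose reductase enzyme activity, measured with DL-glyceraldehyde as the substrate; in other assays of this panel Not Active means under 50% inhibition at 10 µM.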
The target of experiment [3] is 5-hydroxytryptamine receptor 4 (Cavia porcellus, UniProt O70528). The format is cell membranes, Dunkin-Hartley, Striatum, Membrane. The settings on record: for pIC50: read-out: IC50; for pKi: read-out: Ki. For all read-outs here: in other assays of this panel Not Active means under 50% inhibition at 10 µM.
Another experiment addresses Melanocortin receptor 3 (Homo sapiens, UniProt P41968). Format: cell membranes, Membrane. Conditions: hek293.
Experiment [4] has as its target Mitogen-activated protein kinase 3 (Homo sapiens, UniProt P27361). Put plainly: DRUGMATRIX: Protein Serine/Threonine Kinase, ERK1 enzyme inhibition (substrate: Myelin Basic Protein). Conditions: Not Active = under 50% inhibition at 10 µM. More on the design: species or system Escherichia coli.

pIC50, pKi: −log10 of the molar value.

Sequence of Melanocortin receptor 4 (P32245 whole entry): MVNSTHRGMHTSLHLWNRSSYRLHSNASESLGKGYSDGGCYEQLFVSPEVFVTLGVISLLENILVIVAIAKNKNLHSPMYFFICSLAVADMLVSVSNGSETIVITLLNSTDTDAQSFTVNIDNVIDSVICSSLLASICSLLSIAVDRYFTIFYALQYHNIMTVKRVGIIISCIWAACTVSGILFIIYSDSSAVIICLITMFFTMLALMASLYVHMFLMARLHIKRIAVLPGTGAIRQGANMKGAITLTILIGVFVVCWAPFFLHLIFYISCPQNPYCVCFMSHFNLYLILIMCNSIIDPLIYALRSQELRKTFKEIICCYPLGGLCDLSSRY
Sequence of Mitogen-activated protein kinase 3 (P27361 whole entry): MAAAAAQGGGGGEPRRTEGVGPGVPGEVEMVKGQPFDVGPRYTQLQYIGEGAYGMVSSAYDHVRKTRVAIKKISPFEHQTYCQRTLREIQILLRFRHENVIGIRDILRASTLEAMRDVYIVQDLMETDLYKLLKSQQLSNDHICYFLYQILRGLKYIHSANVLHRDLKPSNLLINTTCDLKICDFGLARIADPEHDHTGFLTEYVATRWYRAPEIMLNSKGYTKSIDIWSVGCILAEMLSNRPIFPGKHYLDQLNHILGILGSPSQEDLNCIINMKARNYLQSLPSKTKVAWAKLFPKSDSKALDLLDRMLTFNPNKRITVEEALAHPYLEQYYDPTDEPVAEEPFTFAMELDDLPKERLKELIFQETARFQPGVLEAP
Sequence of Melanocortin receptor 3 (P41968 whole entry): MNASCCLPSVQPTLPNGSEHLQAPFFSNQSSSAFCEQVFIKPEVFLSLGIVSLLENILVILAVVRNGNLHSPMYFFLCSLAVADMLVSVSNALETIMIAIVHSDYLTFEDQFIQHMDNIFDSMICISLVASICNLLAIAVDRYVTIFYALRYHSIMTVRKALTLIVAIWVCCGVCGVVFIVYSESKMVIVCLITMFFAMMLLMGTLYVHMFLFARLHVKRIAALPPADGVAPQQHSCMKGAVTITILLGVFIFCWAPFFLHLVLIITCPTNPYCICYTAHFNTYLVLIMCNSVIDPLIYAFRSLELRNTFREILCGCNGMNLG
Sequence of 5-hydroxytryptamine receptor 4 (O70528 whole entry): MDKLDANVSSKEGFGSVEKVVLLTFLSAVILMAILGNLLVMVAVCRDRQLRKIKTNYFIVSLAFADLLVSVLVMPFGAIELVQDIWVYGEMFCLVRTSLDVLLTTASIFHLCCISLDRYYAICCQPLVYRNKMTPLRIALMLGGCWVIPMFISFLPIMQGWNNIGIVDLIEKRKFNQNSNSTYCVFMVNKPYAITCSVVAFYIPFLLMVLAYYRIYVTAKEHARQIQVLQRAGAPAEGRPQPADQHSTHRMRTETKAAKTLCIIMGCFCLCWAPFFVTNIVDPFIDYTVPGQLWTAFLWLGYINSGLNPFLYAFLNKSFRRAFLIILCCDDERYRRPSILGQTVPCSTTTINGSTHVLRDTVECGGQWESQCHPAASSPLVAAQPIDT
Sequence of Sigma non-opioid intracellular receptor 1 (Q99720 whole entry): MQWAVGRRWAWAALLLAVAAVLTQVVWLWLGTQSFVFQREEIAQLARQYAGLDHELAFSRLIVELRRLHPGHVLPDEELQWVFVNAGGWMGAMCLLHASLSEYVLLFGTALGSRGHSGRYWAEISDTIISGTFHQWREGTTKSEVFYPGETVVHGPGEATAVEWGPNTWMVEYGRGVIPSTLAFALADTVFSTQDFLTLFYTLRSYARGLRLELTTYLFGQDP

In the case of `NC(=O)N1c2ccccc2C=Cc2ccccc21` [CARBAMAZEPINE], the IC50 result (in experiment [1]; against Melanocortin receptor 4; in experiment [2]; in experiment [3]; against Melanocortin receptor 3; in experiment [4]) was “Not Active” in each case.
On to `CCOC(=O)n1ccn(C)c1=S` [CARBIMAZOLE], for which the IC50 result (in experiment [1]; against Melanocortin receptor 4; in experiment [2]; in experiment [3]; against Melanocortin receptor 3; in experiment [4]) was “Not Active” throughout.
For `Oc1ccccc1O` [CATECHOL], the IC50 entry (in experiment [1]; against Melanocortin receptor 4; in experiment [2]; in experiment [3]; at Melanocortin receptor 3; in experiment [4]) was “Not Active” in each case.
Take `CO[C@@]1(NC(=O)CSCC#N)C(=O)N2C(C(=O)O)=C(CSc3nnnn3C)CS[C@@H]21` [CEFMETAZOLE]: the IC50 entry (in experiment [1]; against Melanocortin receptor 4; in experiment [2]; in experiment [3]; at Melanocortin receptor 3; in experiment [4]) was “Not Active” each time.
For the compound `CN(C(=O)CCCOc1ccc2[nH]c(=O)ccc2c1)C1CCCCC1` [CILOSTAMIDE], the IC50 result (in experiment [1]; at Melanocortin receptor 4; in experiment [2]; in experiment [3]; at Melanocortin receptor 3; in experiment [4]) was “Not Active” in each case.
On to `CC(C)(Oc1ccc(C2CC2(Cl)Cl)cc1)C(=O)O` (configuration not stated) [CIPROFIBRATE], for which the IC50 entry (in experiment [1]; at Melanocortin receptor 4; in experiment [2]; at Melanocortin receptor 3; in experiment [4]) was “Not Active” throughout. Moreover, the Ki entry in experiment [3] is reported as “Not Active”.
`Nc1nc(Cl)nc2c1ncn2[C@H]1C[C@H](O)[C@@H](CO)O1` [CLADRIBINE]: the IC50 entry (in experiment [1]; at Melanocortin receptor 4; in experiment [2]; in experiment [3]; on Melanocortin receptor 3; in experiment [4]) was “Not Active” in each case.
On to `CC[C@H]1OC(=O)[C@H](C)[C@@H](O[C@H]2C[C@@](C)(OC)[C@@H](O)[C@H](C)O2)[C@H](C)[C@@H](O[C@@H]2O[C@H](C)C[C@H](N(C)C)[C@H]2O)[C@](C)(OC)C[C@@H](C)C(=O)[C@H](C)[C@@H](O)[C@]1(C)O` [CLARITHROMYCIN], for which the IC50 result (in experiment [1]; on Melanocortin receptor 4; in experiment [2]; in experiment [3]; against Melanocortin receptor 3; in experiment [4]) was “Not Active” each time.
Take `CCC[C@@H]1C[C@@H](C(=O)N[C@@H]([C@H]2O[C@H](SC)[C@H](O)[C@@H](O)[C@H]2O)[C@H](C)Cl)N(C)C1` [CLINDAMYCIN]: the IC50 result (in experiment [1]; on Melanocortin receptor 4; in experiment [2]; in experiment [3]; against Melanocortin receptor 3; in experiment [4]) was “Not Active” in each case.
Consider `O=C(O)c1cc(=O)c2c(OCC(O)COc3cccc4oc(C(=O)O)cc(=O)c34)cccc2o1` [CROMOLYN], for which the IC50 entry (in experiment [1]; at Melanocortin receptor 4; in experiment [2]; in experiment [3]; on Melanocortin receptor 3; in experiment [4]) was “Not Active” each time.
Regarding `O=P1(N(CCCl)CCCl)NCCCO1` (configuration not stated) [CYCLOPHOSPHAMIDE ANHYDROUS], the IC50 entry (in experiment [1]; on Melanocortin receptor 4; in experiment [2]; in experiment [3]; against Melanocortin receptor 3; in experiment [4]) was “Not Active” throughout.
For `CC(=O)O[C@]1(C(C)=O)CC[C@H]2[C@@H]3C=C(Cl)C4=CC(=O)[C@@H]5C[C@@H]5[C@]4(C)[C@H]3CC[C@@]21C` [CYPROTERONE ACETATE], the IC50 entry (in experiment [1]; at Melanocortin receptor 4; in experiment [2]; in experiment [3]; at Melanocortin receptor 3; in experiment [4]) was “Not Active” each time.
`Nc1nc(N)nc(NC2CC2)n1` [CYROMAZINE]: the IC50 entry (in experiment [1]; at Melanocortin receptor 4; in experiment [2]; in experiment [3]; against Melanocortin receptor 3; in experiment [4]) was “Not Active” each time.
Consider `C#C[C@]1(O)CC[C@H]2[C@@H]3CCC4=Cc5oncc5C[C@]4(C)[C@H]3CC[C@@]21C` [DANAZOL], for which the IC50 result (in experiment [1]; at Melanocortin receptor 4; in experiment [2]; in experiment [3]; at Melanocortin receptor 3; in experiment [4]) was “Not Active” throughout.
A word on the pIC50: it is −log10 of the IC50, conventionally taken in molar units. By pKi is commonly meant the negative decadic logarithm of the Ki, by convention in mol/L. On to `CCN[C@@H](C)Cc1cccc(C(F)(F)F)c1` [DEXFENFLURAMINE], for which, in experiment [1], the pIC50 was 6.29. In addition, the pKi in experiment [1] was 6.66. Further, the IC50 result (against Melanocortin receptor 4; in experiment [2]; in experiment [3]; at Melanocortin receptor 3; in experiment [4]) was “Not Active” throughout.
For the compound `C[C@H](C(=O)O)c1cccc(C(=O)c2ccccc2)c1` [DEXKETOPROFEN], the IC50 result (in experiment [1]; against Melanocortin receptor 4; in experiment [2]; in experiment [3]; at Melanocortin receptor 3; in experiment [4]) was “Not Active” throughout.
Consider `CN1C(=O)CN=C(c2ccccc2)c2cc(Cl)ccc21` [DIAZEPAM], for which the IC50 entry (in experiment [1]; against Melanocortin receptor 4; in experiment [2]; in experiment [3]; on Melanocortin receptor 3; in experiment [4]) was “Not Active” in each case.
Take `CN1C[C@H](C(=O)N[C@]2(C)O[C@@]3(O)[C@@H]4CCCN4C(=O)[C@H](Cc4ccccc4)N3C2=O)C[C@@H]2c3cccc4[nH]cc(c34)C[C@H]21` [DIHYDROERGOTAMINE]: the IC50 result (in experiment [1]; against Melanocortin receptor 4; in experiment [2]; against Melanocortin receptor 3; in experiment [4]) was “Not Active” each time. In addition, the negative-log IC50 (pIC50) in experiment [3] was 6.03. In addition, the negative logarithm of the Ki (pKi) in experiment [3] is 6.80.
Turning to `CC(CCc1ccc(O)cc1)NCCc1ccc(O)c(O)c1` (configuration not stated) [DOBUTAMINE], the pIC50 in experiment [1] was 5.60. Also, the pKi in experiment [1] was 5.98. The IC50 result (against Melanocortin receptor 4; in experiment [2]; in experiment [3]; on Melanocortin receptor 3; in experiment [4]) was “Not Active” throughout.
Turning to `CCn1cc(C(=O)O)c(=O)c2cc(F)c(N3CCNCC3)nc21` [ENOXACIN], the IC50 entry (in experiment [1]; against Melanocortin receptor 4; in experiment [2]; in experiment [3]; on Melanocortin receptor 3; in experiment [4]) was “Not Active” in each case.
Regarding `CCC(=O)O[C@H]1[C@H](O[C@@H]2[C@@H](C)[C@H](O[C@H]3C[C@@](C)(OC)[C@@H](O)[C@H](C)O3)[C@@H](C)C(=O)O[C@H](CC)[C@@](C)(O)[C@H](O)[C@@H](C)C(=O)[C@H](C)C[C@@]2(C)O)O[C@H](C)C[C@@H]1N(C)C` [ERYTHROMYCIN PROPIONATE], the IC50 entry (in experiment [1]; against Melanocortin receptor 4; in experiment [2]; in experiment [3]; against Melanocortin receptor 3; in experiment [4]) was “Not Active” each time.
For the compound `C=C(CC)C(=O)c1ccc(OCC(=O)O)c(Cl)c1Cl` [ETHACRYNIC ACID], the IC50 entry (in experiment [1]; against Melanocortin receptor 4; in experiment [3]; against Melanocortin receptor 3; in experiment [4]) was “Not Active” throughout. Further, the pIC50 in experiment [2] (read-out: IC50) was 5.94.
Consider `C#C[C@]1(O)CC[C@H]2[C@@H]3CCc4cc(O)ccc4[C@H]3CC[C@@]21C` [ETHINYL ESTRADIOL], for which the IC50 entry (in experiment [1]; against Melanocortin receptor 4; in experiment [2]; against Melanocortin receptor 3; in experiment [4]) was “Not Active” in each case. The pIC50 in experiment [3] is 5.10. The pKi in experiment [3] was 5.88.
For the compound `OCCO` [ETHYLENE GLYCOL], the IC50 entry (in experiment [1]; against Melanocortin receptor 4; in experiment [2]; in experiment [3]; at Melanocortin receptor 3; in experiment [4]) was “Not Active” in each case.
In the case of `CC(=O)OCC(CCn1cnc2cnc(N)nc21)COC(C)=O` [FAMCICLOVIR], the IC50 entry (in experiment [1]; at Melanocortin receptor 4; in experiment [2]; in experiment [3]; at Melanocortin receptor 3; in experiment [4]) was “Not Active” in each case.
Take `O=C(O)Cc1ccc(-c2ccccc2)cc1` [FELBINAC]: the IC50 result (in experiment [1]; against Melanocortin receptor 4; in experiment [2]; in experiment [3]; at Melanocortin receptor 3; in experiment [4]) was “Not Active” in each case.
On to `CCOC(=O)C1=C(C)NC(C)=C(C(=O)OC)C1c1cccc(Cl)c1Cl` (configuration not stated) [FELODIPINE], for which the IC50 result (in experiment [1]; against Melanocortin receptor 4; in experiment [2]; in experiment [3]; against Melanocortin receptor 3; in experiment [4]) was “Not Active” throughout.
Consider `CC(C(=O)O)c1ccc(-c2ccccc2)c(F)c1` (configuration not stated) [FLURBIPROFEN], for which the IC50 entry (in experiment [1]; against Melanocortin receptor 4; in experiment [2]; in experiment [3]; on Melanocortin receptor 3; in experiment [4]) was “Not Active” throughout.
